Measured values published in ChEMBL document CHEMBL1201862, “PubChem BioAssay data set” (2004).
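Protocol summary: plate cells (96-well), add compound at 5 concentrations, incubate 48 h, interpolate endpoints linearly. Abbreviation: GI50, concentration required for 50% inhibition of growth.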 Active and inactive are the calls of the source. No stated cut-off is given here; in the data, active = GI50 up to about 1.1 µM and inactive = higher.

Experiments:
Test in all cases: growth of human tumour cells (NCI), 48 h
[1] = system: SK-MEL-5
[2] = system: M14
[3] = system: UACC-257
[4] = system: SF-539
[5] = system: MCF7
[6] = system: RXF 393
[7] = system: SK-MEL-28
[8] = system: IGROV-1
[9] = system: TK-10
[10] = system: PC-3
[11] = system: CCRF-CEM
[12] = system: SW-620
[13] = system: SR
[14] = system: SF-295
[15] = system: Malme-3M
[16] = system: UO-31
[17] = system: NCI-H522
[18] = system: HCT-116
[19] = system: K562
[20] = system: NCI-H23

Row | Compound | GI50 [1] | GI50 [2] | GI50 [3] | GI50 [4] | GI50 [5] | GI50 [6] | GI50 [7] | GI50 [8] | GI50 [9] | GI50 [10] | GI50 [11] | GI50 [12] | GI50 [13] | GI50 [14] | GI50 [15] | GI50 [16] | GI50 [17] | GI50 [18] | GI50 [19] | GI50 [20]
1 | COc1ccc2nc3cc([N+](=O)[O-])ccc3c(Nc3ccc(S(=O)(=O)Nc4ncccn4)cc3)c2c1 | 41.6 µM (inactive) | 48.8 µM (inactive) | > 71.1 µM (inactive) | > 100 µM (inactive) | 15.3 µM (inactive) | > 100 µM (inactive) | > 85.5 µM (inactive) | 15 µM (inactive) | 66.8 µM (inactive) | 30.6 µM (inactive) | > 76.9 µM (inactive) | > 76.7 µM (inactive) | 6.24 µM (inactive) | 99.5 µM (inactive) | 48.3 µM (inactive) | 19.4 µM (inactive) | > 71.1 µM (inactive) | 40.6 µM (inactive) | 35.4 µM (inactive) | –
2 | O=C1NC2NC3NC(=O)NC3NC2N1 (centres undefined) | > 100 µM (inactive) | > 100 µM (inactive) | > 100 µM (inactive) | > 100 µM (inactive) | > 100 µM (inactive) | > 100 µM (inactive) | > 100 µM (inactive) | > 100 µM (inactive) | – | > 100 µM (inactive) | > 100 µM (inactive) | > 100 µM (inactive) | > 100 µM (inactive) | > 100 µM (inactive) | > 100 µM (inactive) | > 100 µM (inactive) | > 100 µM (inactive) | > 100 µM (inactive) | > 100 µM (inactive) | > 100 µM (inactive)
3 | CC(C)(C)[Si](C)(C)O[C@@H](C(=O)OC1C=CCCC1)[C@@H](NC(=O)c1ccccc1)c1ccccc1 (some centres undefined) | 16.8 µM (inactive) | – | 19.7 µM (inactive) | 61.1 µM (inactive) | 14.8 µM (inactive) | 3.68 µM (inactive) | 34 µM (inactive) | 37.3 µM (inactive) | 16.5 µM (inactive) | 9.1 µM (inactive) | 12.1 µM (inactive) | 26.2 µM (inactive) | 15.1 µM (inactive) | 18.9 µM (inactive) | 40.3 µM (inactive) | 27.7 µM (inactive) | 16.6 µM (inactive) | 12.6 µM (inactive) | 14 µM (inactive) | 29 µM (inactive)
4 | Cn1c2ccccc2c2c3c(c4c5ccccc5n(C)c4c21)C(=O)c1ccccc1C3=O | 56 µM (inactive) | 76.9 µM (inactive) | 79.6 µM (inactive) | 16.6 µM (inactive) | 67.1 µM (inactive) | 16.3 µM (inactive) | > 100 µM (inactive) | 31 µM (inactive) | 24.3 µM (inactive) | 45.8 µM (inactive) | > 100 µM (inactive) | 79.1 µM (inactive) | 18.7 µM (inactive) | 44.1 µM (inactive) | 29.5 µM (inactive) | 67.3 µM (inactive) | 18.9 µM (inactive) | 30.1 µM (inactive) | – | 18.6 µM (inactive)
5 | CN1C(=O)C2(C)SC1(c1ccccc1)C1C(=O)N(c3ccccc3)C(=O)C12 (centres undefined) | 97.7 µM (inactive) | > 100 µM (inactive) | 26.4 µM (inactive) | > 100 µM (inactive) | 48.5 µM (inactive) | > 100 µM (inactive) | > 100 µM (inactive) | 48 µM (inactive) | 57.4 µM (inactive) | 43.4 µM (inactive) | – | > 100 µM (inactive) | 64.1 µM (inactive) | 54.6 µM (inactive) | > 100 µM (inactive) | > 100 µM (inactive) | 96.4 µM (inactive) | 70.8 µM (inactive) | 57.4 µM (inactive) | > 100 µM (inactive)
6 | Cc1ccc(-c2cc(=O)c(=O)[nH][nH]2)cc1 | > 100 µM (inactive) | > 100 µM (inactive) | > 100 µM (inactive) | > 100 µM (inactive) | > 100 µM (inactive) | > 100 µM (inactive) | > 100 µM (inactive) | 45.1 µM (inactive) | > 100 µM (inactive) | > 100 µM (inactive) | > 100 µM (inactive) | > 100 µM (inactive) | > 100 µM (inactive) | > 100 µM (inactive) | – | > 100 µM (inactive) | 36.9 µM (inactive) | > 100 µM (inactive) | > 100 µM (inactive) | > 100 µM (inactive)
7 | O=c1oc2ccc([N+](=O)[O-])cc2cc1-c1csc(-c2ccccc2)n1 | > 100 µM (inactive) | > 100 µM (inactive) | > 100 µM (inactive) | > 100 µM (inactive) | > 100 µM (inactive) | > 100 µM (inactive) | > 100 µM (inactive) | > 100 µM (inactive) | > 100 µM (inactive) | > 100 µM (inactive) | > 100 µM (inactive) | > 100 µM (inactive) | > 100 µM (inactive) | > 100 µM (inactive) | 32.6 µM (inactive) | > 100 µM (inactive) | > 100 µM (inactive) | > 100 µM (inactive) | > 100 µM (inactive) | –
8 | CC(C)n1c(=O)n(-c2ccccc2)n(C(C)(C)C)c1=O | > 100 µM (inactive) | > 100 µM (inactive) | > 100 µM (inactive) | > 100 µM (inactive) | > 100 µM (inactive) | > 100 µM (inactive) | > 100 µM (inactive) | > 100 µM (inactive) | > 100 µM (inactive) | > 100 µM (inactive) | > 100 µM (inactive) | > 100 µM (inactive) | 58.5 µM (inactive) | > 100 µM (inactive) | > 100 µM (inactive) | > 100 µM (inactive) | – | > 100 µM (inactive) | > 100 µM (inactive) | 83.2 µM (inactive)
9 | Clc1ccc(Cc2nc3cc(Cl)c(Cl)cc3n2CC2CCCN3CCCCC23)cc1Cl (centres undefined) | 1.85 µM (inactive) | 2.01 µM (inactive) | 2.88 µM (inactive) | 1.98 µM (inactive) | 2.38 µM (inactive) | 7.53 µM (inactive) | 2.99 µM (inactive) | 3.89 µM (inactive) | 6.05 µM (inactive) | 4.12 µM (inactive) | – | 1.48 µM (inactive) | 2.78 µM (inactive) | 3.37 µM (inactive) | 1.79 µM (inactive) | 0.335 µM (active) | 1.74 µM (inactive) | 3.04 µM (inactive) | 3.26 µM (inactive) | –
10 | COc1ccc2c(c1)c(=Cc1ccc(N(C)C)cc1)c1cc(-c3ccccc3)[n+](C)n12 | 0.304 µM (active) | 0.312 µM (active) | 0.359 µM (active) | – | 0.327 µM (active) | 0.41 µM (active) | 0.634 µM (active) | 0.144 µM (active) | 0.461 µM (active) | 0.322 µM (active) | 0.269 µM (active) | 0.377 µM (active) | 0.337 µM (active) | 0.264 µM (active) | 0.343 µM (active) | 0.596 µM (active) | 0.0728 µM (active) | 0.314 µM (active) | 0.214 µM (active) | 0.0592 µM (active)
11 | CC(C)(C)[Si](C)(C)OC1(CCc2ccccc2OS(=O)(=O)C(F)(F)F)CCCC=C1COCc1ccccc1 (centres undefined) | – | – | – | > 100 µM (inactive) | 19.1 µM (inactive) | 48.2 µM (inactive) | > 59.6 µM (inactive) | 4.81 µM (inactive) | > 100 µM (inactive) | 3.51 µM (inactive) | 5.19 µM (inactive) | 58.1 µM (inactive) | 1.86 µM (inactive) | 6.34 µM (inactive) | 0.202 µM (active) | – | 2.79 µM (inactive) | 3.33 µM (inactive) | 5.71 µM (inactive) | 9.62 µM (inactive)
12 | N=C(N)SCCN1CCCCC1 | 48 µM (inactive) | 19.9 µM (inactive) | 18.6 µM (inactive) | 35.7 µM (inactive) | 16.6 µM (inactive) | 16.1 µM (inactive) | 28.5 µM (inactive) | 36.6 µM (inactive) | 43.7 µM (inactive) | 15.9 µM (inactive) | – | 29.8 µM (inactive) | 21 µM (inactive) | > 100 µM (inactive) | 12.5 µM (inactive) | 25.5 µM (inactive) | 7.5 µM (inactive) | 26.7 µM (inactive) | 20 µM (inactive) | 26.1 µM (inactive)
13 | O=C1OCc2c1cc1cc3c(cc1c2-c1ccc2c(c1)OCO2)OCO3.O=C1OCc2cc3cc4c(cc3c(-c3ccc5c(c3)OCO5)c21)OCO4 | 4.7 µM (inactive) | 4.47 µM (inactive) | 25.5 µM (inactive) | – | 15.4 µM (inactive) | 5.73 µM (inactive) | 45.4 µM (inactive) | 8.55 µM (inactive) | 14.4 µM (inactive) | 8.38 µM (inactive) | 3.34 µM (inactive) | 4.51 µM (inactive) | 5.7 µM (inactive) | 2.41 µM (inactive) | 37.2 µM (inactive) | 14 µM (inactive) | – | 2.76 µM (inactive) | 0.979 µM (active) | 28.8 µM (inactive)
14 | S=C1C=C(c2ccccc2)Sc2ccccc2N1 | 74.6 µM (inactive) | 57.9 µM (inactive) | 48.6 µM (inactive) | – | > 100 µM (inactive) | 8.95 µM (inactive) | > 100 µM (inactive) | > 100 µM (inactive) | > 100 µM (inactive) | > 100 µM (inactive) | 67.5 µM (inactive) | – | > 100 µM (inactive) | > 100 µM (inactive) | > 100 µM (inactive) | > 100 µM (inactive) | 44.5 µM (inactive) | 79.8 µM (inactive) | > 100 µM (inactive) | > 100 µM (inactive)
15 | CCc1cc(Cc2cc(CC)c(NC(=O)C(=O)CC(=O)c3sc(-c4cccnc4)nc3C)c(CC)c2)cc(CC)c1NC(=O)C(=O)CC(=O)c1sc(-c2cccnc2)nc1C | > 100 µM (inactive) | > 100 µM (inactive) | > 100 µM (inactive) | > 100 µM (inactive) | > 100 µM (inactive) | > 100 µM (inactive) | > 100 µM (inactive) | > 100 µM (inactive) | – | > 100 µM (inactive) | > 100 µM (inactive) | > 100 µM (inactive) | > 10 µM (inactive) | 54.3 µM (inactive) | > 100 µM (inactive) | > 100 µM (inactive) | > 100 µM (inactive) | > 100 µM (inactive) | > 100 µM (inactive) | > 100 µM (inactive)
